Measured values from the supplement of paper PMC10307832.

What was measured:
Test in all cases: relative viability (nuclei count vs DMSO), 5 days (fraction); higher = more cells survive
Quizartinib + Pictilisib = compound: CC(C)(C)c1cc(NC(=O)Nc2ccc(-c3cn4c(n3)sc3cc(OCCN5CCOCC5)ccc34)cc2)no1 [Quizartinib] + CS(=O)(=O)N1CCN(Cc2cc3nc(-c4cccc5[nH]ncc45)nc(N4CCOCC4)c3s2)CC1 [Pictilisib] (partner 1 µM)
How it was run: (§1)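 Nuclei were stained with Hoechst during a one-step fixation (final 0.05% Triton X-100, 1% formaldehyde, 1 ug/ml Hoechst) carried out 5 days after dosing, then counted on 4× images. The cells, lung cancer lines in 1536-well plates, had been dosed by pin tool the day after seeding with one drug alone or a fixed anchor-drug dose plus five library-drug doses (not always all listed) in √10 steps. Relative viability is the nuclei count in treated wells divided by that in vehicle wells, and each value is the median of duplicate plates.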

YM155 + Olaparib = compound: COCC[n+]1c2c(n(Cc3cnccn3)c1C)C(=O)c1ccccc1C2=O [YM155] + O=C(c1cc(Cc2n[nH]c(=O)c3ccccc23)ccc1F)N1CCN(C(=O)C2CC2)CC1 [Olaparib] (partner 8 µM)
How it was run: as §1

Quizartinib + Foretinib = compound: CC(C)(C)c1cc(NC(=O)Nc2ccc(-c3cn4c(n3)sc3cc(OCCN5CCOCC5)ccc34)cc2)no1 [Quizartinib] + COc1cc2c(Oc3ccc(NC(=O)C4(C(=O)Nc5ccc(F)cc5)CC4)cc3F)ccnc2cc1OCCCN1CCOCC1 [Foretinib] (partner 0.25 µM)
How it was run: as §1

YM155 + Tozasertib = compound: COCC[n+]1c2c(n(Cc3cnccn3)c1C)C(=O)c1ccccc1C2=O [YM155] + Cc1cc(Nc2cc(N3CCN(C)CC3)nc(Sc3ccc(NC(=O)C4CC4)cc3)n2)n[nH]1 [Tozasertib] (partner 0.1 µM)
How it was run: as §1

| Cell Line | relative viability (Quizartinib + Pictilisib; first compound 0.001 µM) | relative viability (Quizartinib + Pictilisib; first compound 0.003162 µM) | relative viability (Quizartinib + Pictilisib; first compound 0.01 µM) | relative viability (Quizartinib + Pictilisib; first compound 0.03162 µM) | relative viability (Quizartinib + Pictilisib; first compound 0.1 µM) | relative viability (YM155 + Olaparib; first compound 0.002 µM) | relative viability (YM155 + Olaparib; first compound 0.006325 µM) | relative viability (YM155 + Olaparib; first compound 0.02 µM) | relative viability (YM155 + Olaparib; first compound 0.06325 µM) | relative viability (Quizartinib + Foretinib; first compound 0.001 µM) | relative viability (Quizartinib + Foretinib; first compound 0.003162 µM) | relative viability (Quizartinib + Foretinib; first compound 0.01 µM) | relative viability (Quizartinib + Foretinib; first compound 0.03162 µM) | relative viability (Quizartinib + Foretinib; first compound 0.1 µM) | relative viability (YM155 + Tozasertib; first compound 0.002 µM) | relative viability (YM155 + Tozasertib; first compound 0.006325 µM) | relative viability (YM155 + Tozasertib; first compound 0.02 µM) | relative viability (YM155 + Tozasertib; first compound 0.06325 µM) |
| --- | --- | --- | --- | --- | --- | --- | --- | --- | --- | --- | --- | --- | --- | --- | --- | --- | --- | --- |
| NCI-H2347 | 0.628 | 0.958 | 0.793 | 0.633 | 0.783 | 0.536 | 0.489 | 0.618 | 0.498 | 0.655 | 0.963 | 0.638 | 0.892 | 0.938 | 0.531 | 0.59 | 0.786 | 0.567 |
| NCI-H2405 | 0.614 | 0.442 | 0.327 | 0.44 | 0.503 | 0.753 | 0.771 | 0.637 | 0.397 | 0.96 | 1.04 | 1.03 | 1.05 | 1.07 | 0.678 | 0.704 | 0.637 | 0.513 |
| NCI-H3122 | 0.625 | 0.534 | 0.608 | 0.626 | 0.58 | 0.623 | 0.74 | 0.679 | 0.627 | 0.919 | 0.918 | 0.988 | 0.953 | 0.965 | 0.43 | 0.423 | 0.396 | 0.273 |
| PC-3 [JPC-3] | 0.656 | 0.794 | 0.834 | 0.733 | 0.73 | 1.12 | 1.19 | 1.1 | 0.796 | 0.947 | 1.03 | 1.11 | 1.04 | 1.07 | 0.879 | 0.984 | 0.869 | 0.941 |
| PC-14 | 0.634 | 0.633 | 0.752 | 0.576 | 0.681 | 0.292 | 0.205 | 0.281 | 0.155 | 0.844 | 0.893 | 0.973 | 0.953 | 0.971 | 0.585 | 0.632 | 0.629 | 0.564 |
| RERF-LC-KJ | 0.468 | 0.586 | 0.735 | 0.538 | 0.515 | 0.825 | 0.801 | 0.95 | 0.858 | 0.844 | 0.828 | 0.888 | 0.926 | 0.804 | 0.375 | 0.482 | 0.563 | 0.468 |
| SK-LU-1 | 0.545 | 0.547 | 0.606 | 0.491 | 0.588 | 0.422 | 0.442 | 0.516 | 0.327 | 0.779 | 0.76 | 0.943 | 0.83 | 0.985 | 0.293 | 0.357 | 0.418 | 0.341 |
| SK-MES-1 | 0.244 | 0.329 | 0.391 | 0.363 | 0.365 | 0.707 | 0.574 | 0.258 | 0.189 | 0.789 | 0.901 | 0.972 | 0.925 | 0.939 | 0.853 | 0.866 | 0.483 | 0.267 |
| SW 1573 | 0.474 | 0.432 | 0.516 | 0.325 | 0.475 | 0.5 | 0.409 | 0.21 | 0.0835 | 0.946 | 0.886 | 0.896 | 1.02 | 1.04 | 0.132 | 0.155 | 0.0846 | 0.0818 |
| UMC-11 | 0.522 | 0.779 | 0.836 | 0.742 | 0.885 | 0.389 | 0.374 | 0.595 | 0.386 | – | 0.972 | 1.17 | 0.957 | 1.1 | 0.209 | 0.199 | 0.213 | 0.212 |
